# Source: PubChem BioAssay (NCI)
#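 These data come from cells grown in 96-well plates and exposed to compound for 48 hours at five concentrations. GI50 marks 50% less growth. TGI: total growth inhibition.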
# Experiments:
# Experiment in all cases: inhibition of tumour cell growth, NCI panel, 48 h
# A549 NSCLC = tested on: A549 NSCLC
# IGROV1 ovarian = tested on: IGROV1 ovarian
# NCI-H522 lung = tested on: NCI-H522 lung
# HL-60(TB) leukemia = tested on: HL-60(TB) leukemia
# HCT-116 colon = tested on: HCT-116 colon
# TK-10 renal = tested on: TK-10 renal
# EKVX NSCLC = tested on: EKVX NSCLC
# SW-620 colon = tested on: SW-620 colon
# T-47D breast = tested on: T-47D breast
# HS 578T breast = tested on: HS 578T breast
smiles,measurement,setting,value
O=C(OCCCl)C1OC(n2cc(F)c(=O)[nH]c2=O)CC1O (stereo unspecified),TGI,A549 NSCLC,> 100 µM
same,TGI,IGROV1 ovarian,> 100 µM
same,TGI,NCI-H522 lung,> 100 µM
same,TGI,HL-60(TB) leukemia,> 100 µM
same,TGI,HCT-116 colon,> 100 µM
same,TGI,TK-10 renal,> 100 µM
same,TGI,EKVX NSCLC,> 100 µM
same,TGI,SW-620 colon,> 100 µM
CC1=NN(C(=O)Nc2ccc(Cl)cc2)C(=O)C2CCC(=O)N12 (stereo unspecified),TGI,A549 NSCLC,> 100 µM
same,TGI,IGROV1 ovarian,> 100 µM
same,TGI,HL-60(TB) leukemia,> 100 µM
same,TGI,HCT-116 colon,> 100 µM
same,TGI,TK-10 renal,> 100 µM
same,TGI,EKVX NSCLC,> 100 µM
same,TGI,SW-620 colon,> 100 µM
O=c1c2ccccc2c(/C=N\NC2=NCCN2)c2oc3ccccc3n12,GI50,A549 NSCLC,16400 nM
same,TGI,A549 NSCLC,60.3 µM
same,GI50,NCI-H522 lung,16200 nM
same,TGI,NCI-H522 lung,67.6 µM
same,GI50,HL-60(TB) leukemia,25.3 µM
same,TGI,HL-60(TB) leukemia,92.6 µM
same,GI50,HCT-116 colon,19100 nM
same,TGI,HCT-116 colon,> 100 µM
same,GI50,TK-10 renal,16300 nM
same,TGI,TK-10 renal,31.3 µM
same,GI50,T-47D breast,17600 nM
same,TGI,T-47D breast,36 µM
same,GI50,EKVX NSCLC,16500 nM
same,TGI,EKVX NSCLC,37.2 µM
same,GI50,SW-620 colon,22100 nM
same,TGI,SW-620 colon,74 µM
CC(C)(C)c1cc(/C=N/NC(=O)c2ccccc2NC(=O)c2cccs2)c(O)c(C(C)(C)C)c1,GI50,A549 NSCLC,796 nM
same,TGI,A549 NSCLC,17.9 µM
same,GI50,HS 578T breast,5.13 µM
same,TGI,HS 578T breast,42.6 µM
same,GI50,IGROV1 ovarian,683 nM
same,TGI,IGROV1 ovarian,> 100 µM
same,GI50,NCI-H522 lung,1840 nM
same,TGI,NCI-H522 lung,30.4 µM
same,GI50,HCT-116 colon,713 nM
same,TGI,HCT-116 colon,14.4 µM
same,GI50,TK-10 renal,994 nM
same,TGI,TK-10 renal,18.1 µM
same,GI50,T-47D breast,1850 nM
same,TGI,T-47D breast,29.4 µM
same,GI50,EKVX NSCLC,365 nM
same,TGI,EKVX NSCLC,> 100 µM
same,GI50,SW-620 colon,1380 nM
same,TGI,SW-620 colon,17.8 µM
O=C(/C=C/c1ccccc1O)c1ccc([N+](=O)[O-])cc1,TGI,A549 NSCLC,48.9 µM
same,TGI,IGROV1 ovarian,26.3 µM
same,TGI,NCI-H522 lung,33.1 µM
same,TGI,HL-60(TB) leukemia,56.9 µM
same,TGI,HCT-116 colon,29 µM
same,TGI,TK-10 renal,77.2 µM
same,TGI,EKVX NSCLC,43.4 µM
same,TGI,SW-620 colon,31.3 µM
c1ccncc1,TGI,A549 NSCLC,> 100 µM
same,TGI,IGROV1 ovarian,> 100 µM
same,TGI,NCI-H522 lung,> 100 µM
same,TGI,HL-60(TB) leukemia,> 100 µM
same,TGI,HCT-116 colon,> 100 µM
same,TGI,TK-10 renal,> 100 µM
same,TGI,EKVX NSCLC,> 100 µM
same,TGI,SW-620 colon,> 100 µM
O=C(Cc1nc2ccccc2o1)C(=O)Nc1cccc(Cl)c1,TGI,A549 NSCLC,> 100 µM
same,TGI,IGROV1 ovarian,> 100 µM
same,TGI,NCI-H522 lung,> 100 µM
same,TGI,HL-60(TB) leukemia,> 100 µM
same,TGI,HCT-116 colon,> 100 µM
same,TGI,TK-10 renal,> 100 µM
same,TGI,EKVX NSCLC,> 100 µM
same,TGI,SW-620 colon,> 100 µM
Cc1cc(N2CCCCC2)nc(NC2CCCC(Nc3ccnc4cc(Cl)ccc34)C2)n1 (stereo unspecified),GI50,HS 578T breast,1.55 µM
same,TGI,HS 578T breast,3.95 µM
same,GI50,NCI-H522 lung,1950 nM
same,TGI,NCI-H522 lung,3.75 µM
same,GI50,HCT-116 colon,1020 nM
same,TGI,HCT-116 colon,2.21 µM
same,GI50,TK-10 renal,2070 nM
same,TGI,TK-10 renal,4.25 µM
same,GI50,T-47D breast,1510 nM
same,TGI,T-47D breast,4.07 µM
same,GI50,EKVX NSCLC,1540 nM
same,TGI,EKVX NSCLC,3.54 µM
same,GI50,SW-620 colon,1490 nM
same,TGI,SW-620 colon,3.14 µM
CC(=O)O[C@H]1CCN2C(=O)C=CC(OCc3ccccc3)C12 (stereo partly specified),TGI,A549 NSCLC,> 100 µM
same,TGI,IGROV1 ovarian,> 100 µM
same,TGI,HL-60(TB) leukemia,> 100 µM
same,TGI,TK-10 renal,> 100 µM
same,TGI,EKVX NSCLC,> 100 µM
same,TGI,SW-620 colon,> 100 µM
OCC[N+]12CCCN1CCC2,TGI,A549 NSCLC,> 100 µM
same,TGI,IGROV1 ovarian,> 100 µM
same,TGI,NCI-H522 lung,> 100 µM
same,TGI,HL-60(TB) leukemia,> 100 µM
same,TGI,HCT-116 colon,> 100 µM
same,TGI,TK-10 renal,> 100 µM
same,TGI,EKVX NSCLC,> 100 µM
same,TGI,SW-620 colon,> 100 µM
Cc1ccc(NC(=O)CC/C(CC(=O)C(C)(C)C)=N\NC(=O)C[n+]2ccccc2)cc1C,TGI,A549 NSCLC,> 100 µM
same,TGI,IGROV1 ovarian,> 100 µM
same,TGI,NCI-H522 lung,> 100 µM
same,TGI,HL-60(TB) leukemia,> 100 µM
same,TGI,HCT-116 colon,> 100 µM
same,TGI,TK-10 renal,> 100 µM
same,TGI,EKVX NSCLC,> 100 µM
same,TGI,SW-620 colon,> 100 µM
CCOc1ccc(/C=C/c2cc(OC)c(OC)c(OC)c2)cc1,TGI,A549 NSCLC,> 100 µM
same,TGI,IGROV1 ovarian,> 93.8 µM
same,TGI,NCI-H522 lung,2.21 µM
same,TGI,HL-60(TB) leukemia,1.46 µM
same,TGI,HCT-116 colon,15.2 µM
same,TGI,TK-10 renal,> 100 µM
same,TGI,EKVX NSCLC,> 100 µM
same,TGI,SW-620 colon,> 100 µM
CC1(C)N=C(N)N=C(N)N1c1ccc(OCCCNC(=O)Nc2cccc(S(=O)(=O)F)c2)c(Cl)c1,GI50,A549 NSCLC,1690 nM
same,TGI,A549 NSCLC,> 100 µM
same,GI50,HS 578T breast,5.08 µM
same,TGI,HS 578T breast,> 100 µM
same,GI50,IGROV1 ovarian,448 nM
same,TGI,IGROV1 ovarian,> 100 µM
same,GI50,HL-60(TB) leukemia,0.441 µM
same,TGI,HL-60(TB) leukemia,> 100 µM
same,GI50,HCT-116 colon,636 nM
same,TGI,HCT-116 colon,> 100 µM
same,GI50,T-47D breast,35100 nM
same,TGI,T-47D breast,> 100 µM
same,GI50,EKVX NSCLC,20300 nM
same,TGI,EKVX NSCLC,> 100 µM
same,GI50,SW-620 colon,1640 nM
same,TGI,SW-620 colon,> 100 µM
Cc1ccc2cccc(OC(=O)Nc3cccc(C(F)(F)F)c3)c2n1,GI50,A549 NSCLC,3440 nM
same,TGI,A549 NSCLC,13.4 µM
same,GI50,HS 578T breast,3.53 µM
same,TGI,HS 578T breast,18.9 µM
same,GI50,IGROV1 ovarian,4290 nM
same,TGI,IGROV1 ovarian,17.4 µM
same,GI50,HL-60(TB) leukemia,5.41 µM
same,TGI,HL-60(TB) leukemia,38.4 µM
same,GI50,HCT-116 colon,3270 nM
same,TGI,HCT-116 colon,11.1 µM
same,GI50,TK-10 renal,3870 nM
same,TGI,TK-10 renal,18.2 µM
same,GI50,T-47D breast,3050 nM
same,TGI,T-47D breast,13.4 µM
same,GI50,SW-620 colon,3460 nM
same,TGI,SW-620 colon,13.3 µM
CN(C)CCC(CCN(C)C)=NO,TGI,A549 NSCLC,> 100 µM
same,TGI,IGROV1 ovarian,> 100 µM
same,TGI,NCI-H522 lung,> 100 µM
same,TGI,HL-60(TB) leukemia,> 100 µM
same,TGI,HCT-116 colon,> 100 µM
same,TGI,TK-10 renal,> 100 µM
same,TGI,EKVX NSCLC,> 100 µM
same,TGI,SW-620 colon,> 100 µM
COc1ccc(C2CC(c3ccc(Nc4ccnc5cc(Cl)ccc45)cc3)=NN2C=O)cc1 (stereo unspecified),GI50,A549 NSCLC,50300 nM
same,TGI,A549 NSCLC,> 100 µM
same,GI50,HS 578T breast,> 100 µM
same,TGI,HS 578T breast,> 100 µM
same,GI50,IGROV1 ovarian,43100 nM
same,TGI,IGROV1 ovarian,> 100 µM
same,GI50,HL-60(TB) leukemia,2.23 µM
same,TGI,HL-60(TB) leukemia,5.16 µM
same,GI50,HCT-116 colon,9970 nM
same,TGI,HCT-116 colon,> 100 µM
same,GI50,TK-10 renal,20900 nM
same,TGI,TK-10 renal,48.2 µM
same,GI50,T-47D breast,1380 nM
same,TGI,T-47D breast,15 µM
same,GI50,EKVX NSCLC,> 100000 nM
same,TGI,EKVX NSCLC,> 100 µM
same,GI50,SW-620 colon,35800 nM
same,TGI,SW-620 colon,> 100 µM
Oc1c(Cl)cc(Cl)cc1/C=N/Nc1nnc(N/N=C/c2cc(Cl)cc(Cl)c2O)c2ccccc12,GI50,A549 NSCLC,419 nM
same,TGI,A549 NSCLC,> 100 µM
same,GI50,HS 578T breast,1.03 µM
same,TGI,HS 578T breast,> 100 µM
same,GI50,IGROV1 ovarian,419 nM
same,TGI,IGROV1 ovarian,> 100 µM
same,GI50,NCI-H522 lung,366 nM
same,TGI,NCI-H522 lung,6.7 µM
same,GI50,HCT-116 colon,433 nM
same,TGI,HCT-116 colon,> 100 µM
same,GI50,TK-10 renal,704 nM
same,TGI,TK-10 renal,> 100 µM
same,GI50,T-47D breast,506 nM
same,TGI,T-47D breast,> 100 µM
same,GI50,EKVX NSCLC,429 nM
same,TGI,EKVX NSCLC,> 100 µM
same,GI50,SW-620 colon,416 nM
same,TGI,SW-620 colon,> 100 µM
Oc1ccc2ccccc2c1N=Nc1cc(Cl)ccc1Cl,TGI,A549 NSCLC,> 50 µM
same,TGI,HS 578T breast,21.4 µM
same,TGI,IGROV1 ovarian,18.1 µM
same,TGI,NCI-H522 lung,> 50 µM
same,TGI,HL-60(TB) leukemia,> 50 µM
same,TGI,HCT-116 colon,48.1 µM
same,TGI,TK-10 renal,35.9 µM
same,TGI,EKVX NSCLC,20.6 µM
same,TGI,SW-620 colon,> 50 µM
N#CCC(=O)N/N=C1/C(=O)N(c2cc(Cl)ccc2Cl)C(=O)C(=O)C1c1nc2ccccc2s1 (stereo unspecified),TGI,A549 NSCLC,> 100 µM
same,TGI,IGROV1 ovarian,> 100 µM
same,TGI,NCI-H522 lung,> 100 µM
same,TGI,HL-60(TB) leukemia,> 100 µM
same,TGI,HCT-116 colon,> 100 µM
same,TGI,TK-10 renal,> 100 µM
same,TGI,EKVX NSCLC,> 100 µM
same,TGI,SW-620 colon,> 100 µM
O=C(N/C(=C\c1cccc([N+](=O)[O-])c1)c1nc2ccccc2[nH]1)c1ccccc1,TGI,A549 NSCLC,> 100 µM
same,TGI,IGROV1 ovarian,> 100 µM
same,TGI,NCI-H522 lung,> 100 µM
same,TGI,HCT-116 colon,> 100 µM
same,TGI,EKVX NSCLC,> 100 µM
same,TGI,SW-620 colon,> 100 µM
